Laboratory results from patent publication US12377106B2, “Piperidinylpyrazine-carboxamide compounds for treating and preventing cancer and for degrading BTK” (NURIX THERAPEUTICS, INC., priority 2021, dated 2025).
“Also recorded” adds a separate entry of the source.

Columns and labels:
[1] = test system: novel BTK mutations emerging post BTKi-treatment; experiment: Degradation of novel BTK mutations emerging post BTKi-treatment (FIG. 6); assay type: cell-based; conditions: multiple novel BTK mutations emerging post BTKi-treatment
patients with CLL = experiment: Efficacy evaluations in CLL patients; assay type: in vivo, human
Experimental: (§1) Patients were treated at four different dosage levels of Compound 149: dose level 1 (100 mg), dose level 2 (200 mg), dose level 3 (300 mg), and dose level 4 (400 mg). The objective of the study was to assess safety and tolerability, to identify maximum tolerated dose, and to evaluate PK/PD.
Patients evaluated in this study were treated for diseases or disorders selected from the group consisting of: chronic lymphocytic leukemia (CLL) with BTK C481 mutation (n 20); CLL without BTK C481 mutation (n˜20); mantle cell lymphoma (MCL), marginal zone lymphoma (MZL), Waldenstrom's macroglobulinemia (WM) (n˜20); follicular lymphoma (FL) (n˜20); and diffuse large B cell lymphoma (DLBCL) (n˜20). Heavily pretreated patient population, including double-refractory CLL patients.
Data shown in FIG. 6 confirms that Compound 149 is a potent BTK degrader to solve inhibitor resistance observed with prior therapy.

[2] = test system: lymphoma cells harboring BTK-C481S mutation; experiment: Killing of lymphoma cells harboring BTK-C481S mutation (FIG. 6); assay type: cell-based
[3] = Safety and tolerability in patients with relapsed and refractory B cell malignancies; assay type: in vivo; conditions: for Anemia, Grade ≥ 3 / Clostridium difficile colitis, Grade ≥ 3 / Clostridium difficile infection, Grade ≥ 3 / Cognitive disorder, Grade ≥ 3 / Dyspnea, Grade ≥ 3 / Hypertension, Grade ≥ 3 / Neutropenia, Grade ≥ 3 / Pain in extremity, Grade ≥ 3 / Upper resp. tract infection, Grade ≥ 3: all patients
Experimental: (§2) Compound 149 was administered to human patients in a Phase 1a/lb trial investigating safety and tolerability in relapsed and refractory B cell malignancies. Compound 149 was administered as a once daily oral dose first in an accelerated Phase 1a dose escalation starting at 100 mg on Day 1. The first dose levels are explored in a single patient cohort until a grade 2 adverse event has been observed. Thereafter, a traditional 3+3 escalation design is used. This 100 mg starting dose was predicted to provide similar exposure as that observed in non-human primate studies. Once a dose is selected based on all safety, efficacy, pharmacokinetic, and pharmacodynamic data available, the trial will expand in up to five expansion cohorts.
as §1
Safety population included 19 subjects, and data is summarize in Table 6 below. Two subjects were assigned to the 100 mg cohort but treatment was not entered in the electronic data capture (EDC) at time of extract.

[4] = test system: patient with non-GCB (ABC subtype) DLBCL; experiment: Response of a patient with non-GCB (ABC subtype) DLBCL (Lugano criteria, FDG-PET CT scan); assay type: in vivo, human; conditions: 300 mg
Experimental: A heavily pre-treated patient with non-GCB (ABC subtype) DLBCL was enrolled in Compound 149 phase 1 dose-escalation. The patient was treated at a single dosage level of Compound 149: […] (300 mg) for a period of 5 months and ongoing. The objective of the study was to assess safety and tolerability, to identify maximum tolerated dose, and to evaluate PK/PD.
The patient's response was checked at 8 weeks and 16 weeks. […] Gradual BTK degradation was observed until day 8 day of receiving the 300 mg dose of Compound 149, wherein the maximum BTK degradation was achieved on the 8th day. Consistent with its design, Compound 149 also degraded Ikaros and Aiolos which is responsible for the compound's immunomodulatory activity. […] In the 16-week assessment image, maximum standard uptake value (Max SUV) reduced from 17.6 at screening to 2.5 at the 16-week assessment time with the Deauville five-point scale (5PS; Barrington et al., 2010, Eur J Nucl Med Mol Imaging 37 (10): 1824-33) reducing from 5 to 2.

[5] = Plasma concentrations of compound 149 after once daily oral dosing; assay type: in vivo, human; conditions: all patients, once daily oral 100 mg or 200 mg
Experimental: as §2

NC(=O)c1ncc(N2CCCCC2)nc1Nc1ccc(C2CCN(C[C@@H]3CCN(c4ccc5c(c4)C(=O)N(C4CCC(=O)NC4=O)C5=O)C3)CC2)cc1 (some centres unmarked) [Compound 149]
degradation of mutant BTK [1]: degrades multiple novel BTK mutations emerging post BTKi-treatment
clinical activity / benefit in CLL patients (patients with CLL; CLL patients with prior therapy (median of six prior treatments), 100 mg, FIG. 4): durable benefit; also recorded: showed clinical activity
nodal reductions and/or lymphocytosis (patients with CLL; all evaluable CLL patients, FIG. 5): nodal reductions and/or lymphocytosis observed in all patients treated
responses in BTK inhibitor-resistant CLL patients (patients with CLL; evaluable CLL patients, FIG. 5): responses in patients with resistance mutations to covalent and non-covalent BTK inhibitors
killing of lymphoma cells [2]: kills lymphoma cells harboring BTK-C481S mutation
Anemia, Grade ≥ 3 ([3]; 100 mg (N = 10)): 1 (10%) n (%)
Clostridium difficile colitis, Grade ≥ 3 ([3]; 100 mg (N = 10)): 0 (0%) n (%)
Clostridium difficile infection, Grade ≥ 3 ([3]; 100 mg (N = 10)): 0 (0%) n (%)
Cognitive disorder, Grade ≥ 3 ([3]; 100 mg (N = 10)): 0 (0%) n (%)
Dyspnea, Grade ≥ 3 ([3]; 100 mg (N = 10)): 0 (0%) n (%)
Hypertension, Grade ≥ 3 ([3]; 100 mg (N = 10)): 0 (0%) n (%)
Neutropenia, Grade ≥ 3 ([3]; 100 mg (N = 10)): 1 (10%) n (%)
Pain in extremity, Grade ≥ 3 ([3]; 100 mg (N = 10)): 0 (0%) n (%)
Upper resp. tract infection, Grade ≥ 3 ([3]; 100 mg (N = 10)): 0 (0%) n (%)
Anemia, Grade ≥ 3 ([3]; 200 mg (N = 6)): 1 (16.7%) n (%)
Clostridium difficile colitis, Grade ≥ 3 ([3]; 200 mg (N = 6)): 1 (16.7%) n (%)
Clostridium difficile infection, Grade ≥ 3 ([3]; 200 mg (N = 6)): 1 (16.7%) n (%)
Cognitive disorder, Grade ≥ 3 ([3]; 200 mg (N = 6)): 0 (0%) n (%)
Dyspnea, Grade ≥ 3 ([3]; 200 mg (N = 6)): 1 (16.7%) n (%)
Hypertension, Grade ≥ 3 ([3]; 200 mg (N = 6)): 1 (16.7%) n (%)
Neutropenia, Grade ≥ 3 ([3]; 200 mg (N = 6)): 3 (50%) n (%)
Pain in extremity, Grade ≥ 3 ([3]; 200 mg (N = 6)): 0 (0%) n (%)
Upper resp. tract infection, Grade ≥ 3 ([3]; 200 mg (N = 6)): 1 (16.7%) n (%)
Anemia, Grade ≥ 3 ([3]; 300 mg (N = 3)): 0 (0%) n (%)
Clostridium difficile colitis, Grade ≥ 3 ([3]; 300 mg (N = 3)): 0 (0%) n (%)
Clostridium difficile infection, Grade ≥ 3 ([3]; 300 mg (N = 3)): 0 (0%) n (%)
Cognitive disorder, Grade ≥ 3 ([3]; 300 mg (N = 3)): 1 (33.3%) n (%)
Dyspnea, Grade ≥ 3 ([3]; 300 mg (N = 3)): 0 (0%) n (%)
Hypertension, Grade ≥ 3 ([3]; 300 mg (N = 3)): 0 (0%) n (%)
Neutropenia, Grade ≥ 3 ([3]; 300 mg (N = 3)): 2 (66.7%) n (%)
Pain in extremity, Grade ≥ 3 ([3]; 300 mg (N = 3)): 1 (33.3%) n (%)
Upper resp. tract infection, Grade ≥ 3 ([3]; 300 mg (N = 3)): 0 (0%) n (%)
dose limiting toxicity ([3]; 300 mg, a CLL patient, cognitive AE believed related to immunomodulatory activity): Dose limiting toxicity was observed
dose limiting toxicity (DLT) or serious adverse event (SAE) ([3]; DLBCL patient, 300 mg, 5 months and ongoing): no dose limiting toxicity (DLT) or serious adverse event (SAE) was observed
atrial fibrillation adverse events ([3]; at 100 mg in a patient with MCL and at 200 mg in a patient with CLL): Two AEs of lower grade atrial fibrillation were observed
tolerability / dose limiting toxicities ([3]; humans, 100 mg and 200 mg per dose): well-tolerated with no dose limiting toxicities
Deauville five-point scale (5PS) ([4]; DLBCL patient, 16-week assessment, 5 at screening): 2
maximum standard uptake value (Max SUV) ([4]; DLBCL patient, 16-week assessment, 17.6 at screening): 2.5
response per Lugano criteria at 8 weeks ([4]; heavily pre-treated non-GCB (ABC subtype) DLBCL patient): complete response
response at the 16-week assessment (FDG-PET CT Scan Disease Assessment) ([4]; non-GCB (ABC subtype) DLBCL patient, FIG. 9): complete confirmed response
steady state plasma concentrations achieved by [5]: ≤ 8 days
